Assay results as given in a compilation of properties of binary mixtures (doi:10.1016/j.molliq.2017.11.153).

Experiment: xn = mol fraction of the nth substance listed
Conditions: 101 kPa

CCCC[n+]1ccccc1.N#C[N-]C#N + CC1COC(=O)O1
Conditions | electrical conductivity [S/m] | viscosity [mPa·s]
288.15 K, x1 = 0.197 | 0.742 | 6.99
288.15 K, x1 = 0.3005 | 1.42 | 9.49
288.15 K, x1 = 0.4003 | 1.56 | 13.97
288.15 K, x1 = 0.4997 | 1.5 | 17.55
288.15 K, x1 = 0.6002 | 1.73 | 22.95
288.15 K, x1 = 0.7011 | 1.64 | 29.62
288.15 K, x1 = 0.7885 | 1.86 | 36.03
288.15 K, x1 = 0.9008 | 1.76 | 44.07
288.15 K, x1 = 1 | 1.05 | 51.49
293.15 K, x1 = 0.1003 | 0.749 | 4.23
293.15 K, x1 = 0.197 | 0.986 | 5.99
293.15 K, x1 = 0.3005 | 1.54 | 8.102
293.15 K, x1 = 0.4003 | 1.7 | 11.73
293.15 K, x1 = 0.6002 | 1.89 | 18.85
293.15 K, x1 = 0.7011 | 1.8 | 24.05
293.15 K, x1 = 0.7885 | 2.06 | 29.56
293.15 K, x1 = 0.9008 | 1.96 | 36.12
293.15 K, x1 = 1 | 1.24 | 41.05
298.15 K, x1 = 0.1003 | 0.979 | 3.756
298.15 K, x1 = 0.197 | 1.25 | 5.229
298.15 K, x1 = 0.4003 | 1.92 | 10
298.15 K, x1 = 0.4997 | 1.92 | 12.17
298.15 K, x1 = 0.6002 | 2.1 | 15.72
298.15 K, x1 = 0.9008 | 2.19 | 29.65
298.15 K, x1 = 1 | 1.48 | 33.27
303.15 K, x1 = 0.1003 | 1.18 | 3.361
303.15 K, x1 = 0.197 | 1.49 | 4.616
303.15 K, x1 = 0.4003 | 2.13 | 8.585
303.15 K, x1 = 0.4997 | 2.16 | 10.33
303.15 K, x1 = 0.7011 | 2.3 | 16.61
303.15 K, x1 = 0.7885 | 2.54 | 20.61
303.15 K, x1 = 0.9008 | 2.44 | 24.44
303.15 K, x1 = 1 | 1.75 | 27.62
308.15 K, x1 = 0.197 | 1.71 | 4.109
308.15 K, x1 = 0.4003 | 2.36 | 7.468
308.15 K, x1 = 0.4997 | 2.37 | 8.918
308.15 K, x1 = 0.6002 | 2.6 | 11.36
308.15 K, x1 = 0.7885 | 2.82 | 17.47
308.15 K, x1 = 0.9008 | 2.72 | 20.45
308.15 K, x1 = 1 | 2.01 | 22.9
313.15 K, x1 = 0.197 | 1.97 | 3.689
313.15 K, x1 = 0.4003 | 2.62 | 6.563
313.15 K, x1 = 0.4997 | 2.63 | 7.769
313.15 K, x1 = 0.6002 | 2.85 | 9.83
313.15 K, x1 = 0.7011 | 2.8 | 12.08
313.15 K, x1 = 0.7885 | 3.1 | 14.86
313.15 K, x1 = 0.9008 | 3 | 17.22
313.15 K, x1 = 1 | 2.26 | 19.3
318.15 K, x1 = 0.197 | 2.19 | 3.335
318.15 K, x1 = 0.3005 | 2.75 | 4.265
318.15 K, x1 = 0.4003 | 2.89 | 5.812
318.15 K, x1 = 0.4997 | 2.92 | 6.839
318.15 K, x1 = 0.6002 | 3.13 | 8.579
318.15 K, x1 = 0.7885 | 3.39 | 12.44
318.15 K, x1 = 0.9008 | 3.28 | 14.84
318.15 K, x1 = 1 | 2.54 | 16.73
323.15 K, x1 = 0.1003 | 2 | 2.291
323.15 K, x1 = 0.4003 | 3.17 | 5.183
323.15 K, x1 = 0.4997 | 3.27 | 6.066
323.15 K, x1 = 0.6002 | 3.42 | 7.559
323.15 K, x1 = 0.9008 | 3.6 | 12.65
323.15 K, x1 = 1 | 2.88 | 14.44
328.15 K, x1 = 0.1003 | 2.23 | 2.121
328.15 K, x1 = 0.197 | 2.71 | 2.794
328.15 K, x1 = 0.3005 | 3.33 | 3.481
328.15 K, x1 = 0.4003 | 3.48 | 4.656
328.15 K, x1 = 0.4997 | 3.61 | 5.42
328.15 K, x1 = 0.7011 | 3.77 | 8.083
328.15 K, x1 = 0.7885 | 4.05 | 9.34
328.15 K, x1 = 0.9008 | 3.93 | 11.05
333.15 K, x1 = 0.1003 | 2.43 | 1.968
333.15 K, x1 = 0.4003 | 3.83 | 4.209
333.15 K, x1 = 0.4997 | 3.94 | 4.876
333.15 K, x1 = 0.6002 | 4.07 | 6.001
333.15 K, x1 = 0.7885 | 4.4 | 8.312
333.15 K, x1 = 0.9008 | 4.29 | 9.53
338.15 K, x1 = 0.1003 | 2.64 | 1.834
338.15 K, x1 = 0.3005 | 4.02 | 2.906
338.15 K, x1 = 0.4003 | 4.17 | 3.827
338.15 K, x1 = 0.4997 | 4.3 | 4.429
338.15 K, x1 = 0.6002 | 4.43 | 5.401
338.15 K, x1 = 0.7011 | 4.53 | 6.433
338.15 K, x1 = 0.7885 | 4.78 | 7.324
338.15 K, x1 = 0.9008 | 4.68 | 8.488
338.15 K, x1 = 1 | 3.83 | 9.79
343.15 K, x1 = 0.1003 | 2.85 | 1.716
343.15 K, x1 = 0.197 | 3.42 | 2.232
343.15 K, x1 = 0.3005 | 4.37 | 2.675
343.15 K, x1 = 0.4003 | 4.53 | 3.498
343.15 K, x1 = 0.4997 | 4.68 | 4.039
343.15 K, x1 = 0.6002 | 4.83 | 4.891
343.15 K, x1 = 0.7885 | 5.21 | 6.724
343.15 K, x1 = 1 | 4.21 | 8.771
348.15 K, x1 = 0.1003 | 3.07 | 1.612
348.15 K, x1 = 0.197 | 3.69 | 2.089
348.15 K, x1 = 0.4003 | 4.92 | 3.213
348.15 K, x1 = 0.4997 | 5.12 | 3.704
348.15 K, x1 = 0.6002 | 5.3 | 4.454
348.15 K, x1 = 0.7885 | 5.72 | 6.247
348.15 K, x1 = 0.9008 | 5.61 | 6.724
348.15 K, x1 = 1 | 4.53 | 7.884
353.15 K, x1 = 0.1003 | 3.26 | 1.519
353.15 K, x1 = 0.197 | 3.93 | 1.964
353.15 K, x1 = 0.3005 | 5.11 | 2.296
353.15 K, x1 = 0.4997 | 5.58 | 3.414
353.15 K, x1 = 0.6002 | 5.79 | 4.076
353.15 K, x1 = 0.7011 | 5.98 | 4.787
353.15 K, x1 = 0.7885 | 6.29 | 5.647
353.15 K, x1 = 0.9008 | 6.14 | 6.159
353.15 K, x1 = 1 | 4.93 | 7.129

CC1COC(=O)O1 (configuration not stated) + CCCC[n+]1ccccc1.N#C[N-]C#N
x2 = 0
Conditions | viscosity [mPa·s]
288.15 K | 3.064
293.15 K | 2.738
298.15 K | 2.469
303.15 K | 2.24
308.15 K | 2.042
313.15 K | 1.873
323.15 K | 1.595
328.15 K | 1.464
338.15 K | 1.277
343.15 K | 1.195
348.15 K | 1.122
353.15 K | 1.056
